Measured values: patent publication US5208320A, “Polypeptide having c-AMP-producing activity” (Takeda Chemical Industries, Ltd., priority 1990, dated 1993)
Ends that are not written are not given here.

Key:
[1] = background art; cited from earlier work
[2] = tested on: PC12h cells; experiment: c-AMP-producing activity: c-AMP secreted by PC12h cells, radioimmunoassay kit; type: cell-based, rat; details: sample added, 37° C. for 2 hours, c-AMP in culture solution, FIG. 1
Description: In the present invention, c-AMP producing activity was assayed by determining the amount of c-AMP secreted out of cells with a radioimmunoassay kit for measuring c-AMP, using subcultured cell PC12h of rat adrenal medulla origin.
Established cells derived from adrenal medullas, PC12h, were cultivated in Dulbecco's modified Eagle's medium containing 10% semi-fetal calf serum at 37° C. A 48-well collagen-treated plate was inoculated with 5×10^4 cells per well, and cultivation was conducted for 7 to 10 days. Then, the culture medium was exchanged for 500 μl of Hank's balanced salt solution, followed by standing at 37° C. for 30 minutes. A sample to be tested dissolved in the same solution was added thereto, and cultivation was conducted at 37° C. for 2 hours. Subsequently, the amount of c-AMP in this culture solution was assayed by using a kit for measuring c-AMP (Amersham Inc.).

[3] = tested on: neuronal cell death induced by the gp120 envelope glycoprotein of the AIDS virus; details: known property of VIP; cited from earlier work

vasoactive intestinal peptide (HSDAVFTDNYTRLRKQMAVKKYLNSILN; ends and bridges not checked; UniProt P01282 125-152, looked up) [VIP, 68% homology with PACAP-27-NH2]
c-AMP-producing activity [1]: very weak
c-AMP-producing activity [2]: weak
protection of neurons from cell death induced by gp120 [3]: capable of protecting neurons from cell death
